For series [1], the target named is T1, hERG channel (Homo sapiens, UniProt Q12809).
T1 construct: expressed in transfected cells; host or cells: CHO (Chinese hamster ovary)
The series is described as follows: hERG channel inhibition assay (patch-clamp, CHO hERG cells). The series is classed as cell-based. Particulars: for IC50 / IC20: CHO hERG cells, whole-cell patch-clamp; for IC20: human, CHO cells stably expressing hERG; for hERG IC20 / TLR8 IC50 / hERG IC20 / TLR7 IC50 / hERG IC20 / TLR9 IC50: safety ratio; for hERG IC20 / TLR7 IC50: TLR7 IC50 of ER compounds from Table 1; for hERG IC20 / TLR9 IC50: TLR9 IC50 of ER compounds from Table 1. In outline:
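Whole-cell voltage-clamp on CHO cells stably expressing human hERG, IKhERG evoked at 0.1 Hz. Compound applied at rising concentrations, each held 3-10 min to steady state; current amplitude and kinetics expressed against control taken as 100%.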

In series [2] the target is T2, human TLR8 (Homo sapiens, UniProt Q9NR97).
T2 construct: host or cells: HEK293 (HEK-Blue)
T2 sequence (Q9NR97 27-1041): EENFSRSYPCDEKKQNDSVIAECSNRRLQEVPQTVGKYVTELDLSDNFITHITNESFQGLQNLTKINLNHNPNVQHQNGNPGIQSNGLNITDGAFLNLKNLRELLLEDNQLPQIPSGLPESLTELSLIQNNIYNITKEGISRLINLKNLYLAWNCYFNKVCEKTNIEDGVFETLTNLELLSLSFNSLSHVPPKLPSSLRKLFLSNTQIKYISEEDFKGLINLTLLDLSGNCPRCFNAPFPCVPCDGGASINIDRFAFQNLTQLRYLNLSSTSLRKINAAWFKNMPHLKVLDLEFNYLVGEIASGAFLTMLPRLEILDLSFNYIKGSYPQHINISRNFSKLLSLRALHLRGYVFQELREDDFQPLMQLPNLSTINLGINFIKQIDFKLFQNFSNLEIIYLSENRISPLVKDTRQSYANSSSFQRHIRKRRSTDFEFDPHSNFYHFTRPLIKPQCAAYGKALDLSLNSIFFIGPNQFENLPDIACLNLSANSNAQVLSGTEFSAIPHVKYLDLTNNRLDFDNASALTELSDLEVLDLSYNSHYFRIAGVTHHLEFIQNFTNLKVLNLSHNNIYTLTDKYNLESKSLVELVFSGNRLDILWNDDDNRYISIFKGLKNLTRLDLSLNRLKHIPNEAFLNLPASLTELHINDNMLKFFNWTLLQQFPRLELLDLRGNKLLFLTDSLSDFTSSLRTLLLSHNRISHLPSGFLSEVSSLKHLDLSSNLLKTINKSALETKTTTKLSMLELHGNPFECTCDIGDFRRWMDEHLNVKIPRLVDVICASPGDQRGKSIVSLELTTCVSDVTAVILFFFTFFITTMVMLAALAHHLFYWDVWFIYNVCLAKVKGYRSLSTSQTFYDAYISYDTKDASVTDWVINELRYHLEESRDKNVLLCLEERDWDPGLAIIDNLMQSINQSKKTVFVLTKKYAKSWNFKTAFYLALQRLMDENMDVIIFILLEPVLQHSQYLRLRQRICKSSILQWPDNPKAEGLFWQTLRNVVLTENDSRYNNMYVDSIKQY
Nature of the series: HEK293-Blue-hTLR-8 cells assay (SEAP reporter, R848 stimulation). The series is classed as cell-based. The settings on record: HEK293-Blue-hTLR8 cells, R848, 20 hrs; read-out: HEK/hTLR8 IC50. In outline:
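HEK293-Blue-hTLR8 cells (NF-κB/AP-1-driven SEAP) in DMEM/10% FBS were treated with serially diluted compound (1% DMSO final) plus R848 for 20 hrs at 37 °C. Supernatant SEAP was measured with QUANTI-Blue after 2 hrs at 37 °C, absorbance 620-655 nm; antagonism seen as reduced reporter.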

T1 sequence (Q12809 whole entry): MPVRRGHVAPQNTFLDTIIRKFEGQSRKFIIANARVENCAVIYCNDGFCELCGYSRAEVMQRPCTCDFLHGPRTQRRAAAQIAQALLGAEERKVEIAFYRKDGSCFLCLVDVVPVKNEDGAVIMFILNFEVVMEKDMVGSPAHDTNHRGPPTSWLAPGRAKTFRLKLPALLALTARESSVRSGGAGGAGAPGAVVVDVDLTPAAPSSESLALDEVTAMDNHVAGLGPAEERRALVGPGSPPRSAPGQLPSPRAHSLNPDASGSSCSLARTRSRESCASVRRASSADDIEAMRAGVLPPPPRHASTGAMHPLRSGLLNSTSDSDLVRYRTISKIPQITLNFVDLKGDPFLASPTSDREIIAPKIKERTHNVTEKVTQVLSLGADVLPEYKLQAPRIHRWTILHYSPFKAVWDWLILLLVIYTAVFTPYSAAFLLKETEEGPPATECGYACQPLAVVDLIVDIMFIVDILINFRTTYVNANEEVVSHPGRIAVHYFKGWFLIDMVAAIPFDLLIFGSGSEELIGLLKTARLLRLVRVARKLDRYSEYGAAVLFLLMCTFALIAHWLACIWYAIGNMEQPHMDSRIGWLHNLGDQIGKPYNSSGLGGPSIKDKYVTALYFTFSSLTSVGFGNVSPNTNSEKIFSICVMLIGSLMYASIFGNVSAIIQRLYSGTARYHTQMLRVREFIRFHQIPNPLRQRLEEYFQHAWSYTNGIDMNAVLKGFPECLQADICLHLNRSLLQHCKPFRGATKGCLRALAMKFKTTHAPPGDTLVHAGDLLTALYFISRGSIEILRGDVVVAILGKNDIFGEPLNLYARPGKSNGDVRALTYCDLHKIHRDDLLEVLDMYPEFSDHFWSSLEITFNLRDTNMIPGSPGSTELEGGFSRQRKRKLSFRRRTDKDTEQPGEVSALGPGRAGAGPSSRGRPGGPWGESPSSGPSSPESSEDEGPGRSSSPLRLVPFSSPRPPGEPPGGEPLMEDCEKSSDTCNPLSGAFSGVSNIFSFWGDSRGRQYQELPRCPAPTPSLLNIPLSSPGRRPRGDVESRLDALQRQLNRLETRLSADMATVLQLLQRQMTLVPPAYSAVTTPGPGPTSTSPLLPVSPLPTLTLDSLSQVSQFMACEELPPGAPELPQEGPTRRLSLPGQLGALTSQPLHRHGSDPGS

As a reminder, the IC20 is the concentration at which the effect reaches the 20% level. Higher therefore signals weaker potency. Turning to `C[C@@H]1CN(c2ccc(C#N)c3ncccc23)C[C@H](CN2CCN(c3cc4c(cn3)CCNC4)CC2)O1` [Example 20, 5-[(2R,6S)-2-methyl-6-[[4-(5,6,7,8-tetrahydro-2,6-naphthyridin-3-yl)piperazin-1-yl]methyl]morpholin-4-yl]quinoline-8-carbonitrile], in series [1], the IC50 is over 20 µM, the IC20 was over 10 µM, the “hERG IC20 / TLR8 IC50” value is given as over 1666.7 and the “hERG IC20 / TLR7 IC50” value is given as over 1298.7. Moreover, the “hERG IC20 / TLR9 IC50” value in series [1] is listed as over 139.1. The IC50 in series [2] stood at 6 nM.

As to `C[C@@H]1Cc2cnc(N3CCN(C[C@H]4CN(c5ccc(C#N)c6ncccc56)C[C@@H](C)O4)CC3)cc2CN1` (single isomer, unassigned) [Example 77], in series [1], the IC50 was over 20 µM, the IC20 was over 10 µM, the “hERG IC20 / TLR8 IC50” value is over 1515.2 and the “hERG IC20 / TLR7 IC50” value is given as over 885.0. Further, in series [1], the “hERG IC20 / TLR9 IC50” value is over 86.9. Moreover, the IC50 in series [2] is 7 nM.

`C[C@@H]1CN(c2ccc(C#N)c3nccnc23)C[C@H](CN2CCN(c3cnc4c(c3)CNC4)CC2)O1` [Example 25, 8-[(2S,6R)-2-[[4-(6,7-dihydro-5H-pyrrolo[3,4-b]pyridin-3-yl)piperazin-1-yl]methyl]-6-methyl-morpholin-4-yl] quinoxaline-5-carbonitrile]: in series [1], the IC50 was over 20 µM, the IC20 is over 10 µM, the “hERG IC20 / TLR8 IC50” value was over 584.8 and the “hERG IC20 / TLR7 IC50” value was over 520.8. For the same compound, in series [1], the “hERG IC20 / TLR9 IC50” value is listed as over 111.7. The IC50 in series [2] was determined as 17 nM.

For `C[C@@H]1CN(c2ccc(C#N)c3ncccc23)C[C@H](CN2CCN(c3cc4c(cn3)C[C@H](C)NC4)CC2)O1` (single isomer, unassigned) [Example 76], in series [1], the IC50 was over 20 µM, the IC20 was over 10 µM, the “hERG IC20 / TLR8 IC50” value is recorded as over 1960.8 and the “hERG IC20 / TLR7 IC50” value is over 714.3. Further, the “hERG IC20 / TLR9 IC50” value in series [1] is recorded as over 102.7. The IC50 in series [2] worked out at 5 nM.

As for `C[C@@H]1CN(c2ccc(C#N)c3ncccc23)C[C@H](CN2CCN(c3cnc4c(c3)CCNC4)CC2)O1` [Example 23, 5-[(2R,6S)-2-methyl-6-[[4-(5,6,7,8-tetrahydro-1,7-naphthyridin-3-yl)piperazin-1-yl]methyl]morpholin-4-yl]quinoline-8-carbonitrile], in series [1], the IC50 was over 20 µM, the IC20 was over 10 µM, the “hERG IC20 / TLR8 IC50” value is recorded as over 934.6 and the “hERG IC20 / TLR7 IC50” value is over 170.6. Moreover, the “hERG IC20 / TLR9 IC50” value in series [1] is over 170.1. For the same compound, in series [2], the IC50 came out at 11 nM.

For `C[C@@H]1CN(c2ccc(C#N)c3ncccc23)C[C@H](CN2CCN(c3ccc4c(n3)CCNC4)CC2)O1` [Example 14, 5-[(2R,6S)-2-methyl-6-[[4-(5,6,7,8-tetrahydro-1,6-naphthyridin-2-yl)piperazin-1-yl]methyl]morpholin-4-yl]quinoline-8-carbonitrile], in series [1], the IC50 was over 20 µM, the IC20 worked out at 7.07 µM, the “hERG IC20 / TLR8 IC50” value came out at 1725.4 and the “hERG IC20 / TLR7 IC50” value stood at 673.7. Also, the “hERG IC20 / TLR9 IC50” value in series [1] is 122.8. In series [2], the IC50 amounted to 4 nM.

Turning to `C[C@@H]1CN(c2ccc(C#N)c3ncccc23)C[C@H](CN2CCN(c3ccc4c(c3)CN(CCO)C4)CC2)O1` [Example 16, 5-[(2S,6R)-2-[[4-[2-(2-hydroxyethyl)isoindolin-5-yl]piperazin-1-yl]methyl]-6-methyl-morpholin-4-yl]quinoline-8-carbonitrile], in series [1], the IC50 is over 20 µM, the IC20 was over 10 µM, the “hERG IC20 / TLR8 IC50” value is given as over 1000.0 and the “hERG IC20 / TLR7 IC50” value was over 490.2. The “hERG IC20 / TLR9 IC50” value in series [1] is on record as over 110.4. For the same compound, the IC50 in series [2] was found to be 10 nM.

For the origin of these results see patent EP3807270B1, “NOVEL HETEROARYL HETEROCYCLYL COMPOUNDS FOR THE TREATMENT OF AUTOIMMUNE DISEASE” (F. Hoffmann-La Roche AG, priority 2018, dated 2019).
